Data: patent US9969710B2, “Heteroaryl compounds as IRAK inhibitors and uses thereof” (Merck Patent GmbH, priority 2015, dated 2018)
pIC50: −log10 of the molar value.

What was measured:
IRAK1 = molecular target: T1, IRAK1 (Homo sapiens, UniProt P51617); test: IRAK1 enzymatic assay (ADP-Glo luminescence); assay type: biochemical; details: human recombinant His-TEV-IRAK1 (194-712), ATP 1 μM; read-out: IRAK 1 IC50
T1 construct: His-TEV-IRAK1 (194-712); His (N); TEV cleavage site (N)
In short: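 His-TEV-IRAK1(194-712) ([…]) preincubated 15 min RT with compounds (10 μM–0.5 nM) in 50 mM Hepes pH 7.0, 10 mM MgCl2, 2 mM DTT, 0.1% BSA. Reaction started with 1 μM ATP, 2 h RT. ADP formed read by ADP-Glo luminescence.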

IRAK4 = molecular target: T2, IRAK4 (Homo sapiens, UniProt Q9NWZ3); test: IRAK4 enzymatic assay (ADP-Glo luminescence); assay type: biochemical; details: human recombinant His-TEV-IRAK4 (1-460), STK1-biotin peptide substrate
T2 construct: His-TEV-IRAK4 (1-460); His (N); TEV cleavage site (N)
T2 sequence (Q9NWZ3 1-460): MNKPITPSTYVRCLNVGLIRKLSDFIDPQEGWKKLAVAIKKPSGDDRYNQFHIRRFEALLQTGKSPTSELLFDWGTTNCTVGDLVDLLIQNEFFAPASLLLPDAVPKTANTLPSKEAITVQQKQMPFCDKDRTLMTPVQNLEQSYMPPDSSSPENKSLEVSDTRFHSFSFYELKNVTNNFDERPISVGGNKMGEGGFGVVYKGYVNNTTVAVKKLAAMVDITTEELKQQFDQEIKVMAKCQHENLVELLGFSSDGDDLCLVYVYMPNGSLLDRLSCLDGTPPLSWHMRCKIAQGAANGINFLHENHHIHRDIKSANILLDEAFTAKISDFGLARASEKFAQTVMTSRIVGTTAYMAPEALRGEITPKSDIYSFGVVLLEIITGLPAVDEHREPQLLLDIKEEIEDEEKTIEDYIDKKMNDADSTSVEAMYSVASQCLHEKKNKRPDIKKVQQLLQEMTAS
In short: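 His-TEV-IRAK4(1-460) at […] was preincubated with compound (10 μM to 0.5 nM) for 15 min at RT in 50 mM Hepes pH 7.0 with MgCl2, MnCl2, DTT, BSA and Triton. Reactions with ATP ([…]) and STK1-biotin peptide (300 nM) ran 2 h at RT. ADP formed was read by ADP-Glo luminescence.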

[1] = test system: TLR7 induced IL-6 secretion in human mononuclear cells (PBMC's); test: TLR7 induced IL-6 in human PBMC's; assay type: cell-based; details: Homo sapiens, PBMC, TLR7 specific ligand 2 uM overnight, IL-6 AlphaLISA
In short: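 Fresh or frozen healthy-donor PBMCs pre-treated 30 min at 37 °C with compounds (25 uM to 0.4 nM) before overnight (16-18 h) stimulation with TLR7 ligand at 2 uM. IL-6 in supernatant quantified by AlphaLISA.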

T1 sequence (P51617 194-712): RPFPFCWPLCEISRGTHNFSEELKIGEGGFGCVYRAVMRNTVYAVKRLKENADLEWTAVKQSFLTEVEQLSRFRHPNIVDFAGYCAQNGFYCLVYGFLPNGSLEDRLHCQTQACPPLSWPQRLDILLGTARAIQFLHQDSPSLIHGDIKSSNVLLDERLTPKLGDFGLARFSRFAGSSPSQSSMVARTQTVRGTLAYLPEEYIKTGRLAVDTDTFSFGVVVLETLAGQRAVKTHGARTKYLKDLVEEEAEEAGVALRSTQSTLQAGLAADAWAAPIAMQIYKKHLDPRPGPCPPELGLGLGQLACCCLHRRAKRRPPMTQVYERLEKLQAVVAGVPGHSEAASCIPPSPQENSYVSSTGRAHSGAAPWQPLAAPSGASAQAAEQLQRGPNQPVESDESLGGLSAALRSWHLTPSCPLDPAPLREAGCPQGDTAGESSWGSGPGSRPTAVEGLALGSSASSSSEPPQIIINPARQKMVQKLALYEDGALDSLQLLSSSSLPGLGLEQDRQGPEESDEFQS

pIC50 (IRAK1)	pIC50 (IRAK4)	melting point	SMILES	pIC50 [1]
6.00 to 7.00	≥ 7.00	166 to 168 °C	CN1CCC(c2ccc3c(c2)nc(NC(=O)c2cccc(C(F)F)c2)n3CCCO)C1=O (stereo not drawn) [Compound 24, 3-(difluoromethyl)-N-[1-(3-hydroxypropyl)-5-(1-methyl-2-oxopyrrolidin-3-yl)-1H-1,3-benzodiazol-2-yl]benzamide]	≥ 7.00
6.00 to 7.00	≥ 7.00	121 to 124 °C	CN1CCOC(c2ccc3c(c2)nc(NC(=O)c2cccc(C(F)(F)F)c2)n3CC(C)(F)CO)C1=O (stereo not drawn) [Compound 28, N-[1-(2-Fluoro-3-hydroxy-2-methyl-propyl)-5-(4-methyl-3-oxo-morpholin-2-yl)-1H-benzoimidazol-2-yl]-3-trifluoromethyl-benzamide]	≥ 7.00
6.00 to 7.00	≥ 7.00	95 to 96 °C	CN1CC(c2ccc3c(c2)nc(NC(=O)c2cccc(C(F)F)c2)n3CCCO)C(C)(C)C1=O (stereo not drawn) [Compound 27, 3-Difluoromethyl-N-[1-(3-hydroxy-propyl)-5-(1,4,4-trimethyl-5-oxo-pyrrolidin-3-yl)-1H-benzoimidazol-2-yl]-benzamide]	6.00 to 7.00
